Source: PubChem BioAssay AID248 (DTP/NCI, 2004)
Where “and” joins values, the source holds several entries; their conditions need not be identical. Equal values may be shown once. Inconclusive results and toxic doses are left out. Cut-off read from the data, not from the text of the source: active = T/C of 150% or more; inactive = T/C below 125%.

Tested on: L1210 leukemia ip in BDF1 mice, survival T/C
Assay: NCI In Vivo Anticancer Drug Screen. Data for tumor model L1210 Leukemia (intraperitoneal) in B6D2F1 (BDF1) mice
Conditions: endpoint: mean survival time, higher = longer survival
Summary of the method: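 Each compound was tested against a transplantable tumor grown in mice. The endpoint was survival, with treated animals benchmarked against vehicle controls as a simple ratio.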

[1] = dose: 100.0 mg/kg/injection, schedule: Q01DX001 (ip), vehicle: saline
[2] = dose: 200.0 mg/kg/injection, schedule: Q01DX001 (ip), vehicle: saline
[3] = dose: 100.0 mg/kg/injection, schedule: Q04DX003 (ip), vehicle: Klucel (hydroxypropylcellulose) (HPC)
[4] = dose: 200.0 mg/kg/injection, schedule: Q04DX003 (ip), vehicle: Klucel (hydroxypropylcellulose) (HPC)
[5] = dose: 100.0 mg/kg/injection, schedule: Q01DX009 (ip), vehicle: saline
[6] = dose: 100.0 mg/kg/injection, schedule: Q04DX003 (ip), vehicle: saline
[7] = dose: 200.0 mg/kg/injection, schedule: Q01DX009 (ip), vehicle: saline
[8] = dose: 200.0 mg/kg/injection, schedule: Q04DX003 (ip), vehicle: saline
[9] = dose: 400.0 mg/kg/injection, schedule: Q01DX009 (ip), vehicle: saline
[10] = dose: 400.0 mg/kg/injection, schedule: Q04DX003 (ip), vehicle: saline
[11] = dose: 100.0 mg/kg/injection, schedule: Q01DX001 (ip), vehicle: Klucel (hydroxypropylcellulose) (HPC)
[12] = dose: 200.0 mg/kg/injection, schedule: Q01DX001 (ip), vehicle: Klucel (hydroxypropylcellulose) (HPC)
[13] = dose: 400.0 mg/kg/injection, schedule: Q01DX001 (ip), vehicle: Klucel (hydroxypropylcellulose) (HPC)
[14] = dose: 100.0 mg/kg/injection, schedule: Q04DX003 (ip), vehicle: saline with Tween-80
[15] = dose: 200.0 mg/kg/injection, schedule: Q04DX003 (ip), vehicle: saline with Tween-80
[16] = dose: 400.0 mg/kg/injection, schedule: Q04DX003 (ip), vehicle: saline with Tween-80
[17] = dose: 100.0 mg/kg/injection, schedule: Q04DX002 (ip), vehicle: saline with Tween-80
[18] = dose: 200.0 mg/kg/injection, schedule: Q04DX002 (ip), vehicle: saline with Tween-80
[19] = dose: 400.0 mg/kg/injection, schedule: Q04DX002 (ip), vehicle: saline with Tween-80

Measured: T/C

COc1ccc2nc3cc(Cl)ccc3c(NC(C)CCCN(CCCl)CCCl)c2c1 (configuration not stated)
inactive: dose: 0.25 mg/kg/injection, schedule: Q01DX009 (ip), vehicle: saline 108 % of control | dose: 0.25 mg/kg/injection, schedule: Q04DX003 (ip), vehicle: saline 115 % of control | dose: 0.5 mg/kg/injection, schedule: Q01DX009 (ip), vehicle: saline 117 % of control | dose: 0.5 mg/kg/injection, schedule: Q04DX003 (ip), vehicle: saline 100 % of control | dose: 1.0 mg/kg/injection, schedule: Q01DX009 (ip), vehicle: saline 104 % of control | dose: 1.0 mg/kg/injection, schedule: Q04DX003 (ip), vehicle: saline 109 % of control | dose: 2.0 mg/kg/injection, schedule: Q04DX003 (ip), vehicle: saline 116 % of control

NC(=S)N1CCCCC1
inactive: [1] 98 % of control | [2] 96 % of control

CCCCCCCCCCOC(=S)S
inactive: dose: 50.0 mg/kg/injection, schedule: Q04DX002 (sc), vehicle: olive oil, sesame oil, peanut oil 100 % of control | dose: 100.0 mg/kg/injection, schedule: Q04DX002 (sc), vehicle: olive oil, sesame oil, peanut oil 116 % of control | dose: 200.0 mg/kg/injection, schedule: Q04DX002 (sc), vehicle: olive oil, sesame oil, peanut oil 106 % of control

O=C(O)CN1C(=O)NC(C2CC2)(C2CC2)C1=O
inactive: dose: 100.0 mg/kg/injection, schedule: Q04DX003 (ip), vehicle: acetone 100 % of control | dose: 200.0 mg/kg/injection, schedule: Q04DX003 (ip), vehicle: acetone 96 % of control | dose: 400.0 mg/kg/injection, schedule: Q04DX003 (ip), vehicle: acetone 100 % of control

CCC(C)(CC)NC(C)=O
inactive: [3] 99 % of control | [4] 103 % of control

O=CNc1ccccc1Cc1ccccc1
inactive: [1] 101 % of control | [2] 107 % of control

CC(C)COC(=O)Cc1cccc2ccccc12
inactive: dose: 222.0 mg/kg/injection, schedule: Q01DX Z (ip), vehicle: saline 96 % of control | dose: 333.0 mg/kg/injection, schedule: Q01DX Z (ip), vehicle: saline 96 % of control | dose: 500.0 mg/kg/injection, schedule: Q01DX Z (ip), vehicle: saline 94 % of control

O/N=c1/cc(-c2ccc(Cl)cc2)ss1
inactive: [5] 91 % of control | [6] 93 % of control | [7] 89 % of control | [8] 95 % of control | [9] 96 % of control | [10] 97 % of control

CCCN(CCC)c1ccc(/C=C\c2ccncc2)cc1
inactive: [11] 98 % of control | [12] 103 % of control | [13] 98 % of control

CC(=O)NC1CC(CO)C(O)C1O (configuration not stated)
inactive: [1] 107 % of control | [2] 90 % of control | dose: 400.0 mg/kg/injection, schedule: Q01DX001 (ip), vehicle: saline 101 % of control

O/N=C/c1ccc(Cl)cc1Cl
inactive: dose: 50.0 mg/kg/injection, schedule: Q04DX003 (ip), vehicle: Klucel (hydroxypropylcellulose) (HPC) 97 % of control | [11] 94 % of control | [3] 95 % of control | [12] 97 % of control | [4] 97 % of control | [13] 102 % of control

Cc1cc(=O)cc(C)o1
inactive: dose: 100.0 mg/kg/injection, schedule: Q01DX009 (ip), vehicle: saline with Tween-80 108 % of control | dose: 200.0 mg/kg/injection, schedule: Q01DX009 (ip), vehicle: saline with Tween-80 100 % of control | dose: 400.0 mg/kg/injection, schedule: Q01DX009 (ip), vehicle: saline with Tween-80 102 % of control

ClCC1CC2c3ccccc3C1c1ccccc12 (configuration not stated)
inactive: [6] 94 % of control | [8] 87 % of control | [10] 90 % of control

COc1cc(Cl)ccc1NC(=O)Oc1ccc2c(C)cc(=O)oc2c1
inactive: dose: 100.0 mg/kg/injection, schedule: Q01DX009 (ip), vehicle: Klucel (hydroxypropylcellulose) (HPC) 100 % of control

O=C(Cc1ccc(N(CCCl)CCCl)cc1)NC1CCCC1
inactive: [3] 117 % of control | [4] 120 % of control | dose: 266.0 mg/kg/injection, schedule: Q04DX003 (ip), vehicle: Klucel (hydroxypropylcellulose) (HPC) 107 % of control and 112 % of control | dose: 400.0 mg/kg/injection, schedule: Q04DX003 (ip), vehicle: Klucel (hydroxypropylcellulose) (HPC) 102 % of control and 119 % of control

CCCN(CCC)C(=O)c1ccncc1
inactive: [5] 107 % of control | [6] 101 % of control | [7] 102 % of control | [8] 102 % of control | [9] 91 % of control | [10] 114 % of control

Brc1ccc([Si](c2ccccc2)(c2ccccc2)c2ccccc2)cc1
inactive: [14] 97 % of control | [15] 92 % of control | [16] 89 % of control

COc1ccc2c(c1)NP(=S)(c1ccccc1)N2 (configuration not stated)
inactive: dose: 50.0 mg/kg/injection, schedule: Q01DX001 (ip), vehicle: gum acacia 101 % of control | dose: 100.0 mg/kg/injection, schedule: Q01DX001 (ip), vehicle: gum acacia 91 % of control | dose: 100.0 mg/kg/injection, schedule: Q01DX009 (ip), vehicle: gum acacia 91 % of control | dose: 200.0 mg/kg/injection, schedule: Q01DX001 (ip), vehicle: gum acacia 100 % of control | dose: 200.0 mg/kg/injection, schedule: Q01DX009 (ip), vehicle: gum acacia 91 % of control | dose: 400.0 mg/kg/injection, schedule: Q01DX009 (ip), vehicle: gum acacia 91 % of control

C=COCCN1CCN(CCCN2c3ccccc3Sc3ccc(C(F)(F)F)cc32)CC1
inactive: dose: 3.13 mg/kg/injection, schedule: Q04DX003 (ip), vehicle: saline 102 % of control | dose: 6.25 mg/kg/injection, schedule: Q04DX003 (ip), vehicle: saline 102 % of control | dose: 12.5 mg/kg/injection, schedule: Q04DX003 (ip), vehicle: saline 107 % of control

OCCNc1nn2ccnc2c2ccccc12
inactive: [17] 92 % of control | [18] 92 % of control | [19] 92 % of control

c1ccc2c(c1)ccc1nc3ccc4ccccc4c3cc12
inactive: dose: 5.0 mg/kg/injection, schedule: Q01DX001 (ip), vehicle: saline 86 % of control | dose: 20.0 mg/kg/injection, schedule: Q01DX001 (ip), vehicle: saline 97 % of control | dose: 40.0 mg/kg/injection, schedule: Q01DX001 (ip), vehicle: saline 95 % of control | dose: 80.0 mg/kg/injection, schedule: Q01DX001 (ip), vehicle: saline 97 % of control

CC(C)(C)N(Cl)C#N
inactive: [17] 93 % of control | [18] 97 % of control | [19] 97 % of control

COC(=O)/C=C(\C(=O)OC)N(C)c1ccccc1
inactive: dose: 50.0 mg/kg/injection, schedule: Q01DX001 (ip), vehicle: other 106 % of control

CCCCCC(Oc1ccc(Cl)cc1C)C(=O)O (configuration not stated)
inactive: dose: 100.0 mg/kg/injection, schedule: Q04DX002 (ip), vehicle: Klucel (hydroxypropylcellulose) (HPC) 107 % of control | dose: 200.0 mg/kg/injection, schedule: Q04DX002 (ip), vehicle: Klucel (hydroxypropylcellulose) (HPC) 107 % of control

CC(=O)C(C)(NCc1ccccc1)c1ccccc1 (configuration not stated)
inactive: dose: 50.0 mg/kg/injection, schedule: Q04DX003 (ip), vehicle: saline 97 % of control | dose: 100.0 mg/kg/injection, schedule: Q04DX003 (ip), vehicle: other 95 % of control | [6] 97 % of control | dose: 200.0 mg/kg/injection, schedule: Q04DX003 (ip), vehicle: other 93 % of control | [8] 102 % of control | dose: 400.0 mg/kg/injection, schedule: Q04DX003 (ip), vehicle: other 87 % of control

COC(=O)c1nc[nH]c1C(=O)OC
inactive: [6] 112 % of control | [8] 93 % of control | [10] 109 % of control

COc1cc(Nc2ccc(O)c(CN3CCCCC3)c2)c2ncccc2c1
inactive: dose: 75.0 mg/kg/injection, schedule: Q01DX001 (ip), vehicle: other 98 % of control | dose: 150.0 mg/kg/injection, schedule: Q01DX001 (ip), vehicle: other 98 % of control | dose: 300.0 mg/kg/injection, schedule: Q01DX001 (ip), vehicle: other 91 % of control

Cc1ccc(C(=O)CCC(=O)O)c(C)c1
inactive: [14] 100 % of control | [15] 98 % of control | [16] 98 % of control
